In brackets after ≈: the same amount, converted by molar mass.

The text below walks through data of PubChem BioAssay AID1996.

The conditions of this series: buffer; pH 7.4; 200.0 µM.
`COc1ccc(C(CNC(=O)c2cccc(S(=O)(=O)N3CCc4ccccc43)c2)N(C)C)cc1` (centres undefined) showed a kinetic solubility of 39.3 µg/mL (≈ 81.9 µM).
Compound `CNc1ccc(Cl)cc1C(N)=O` showed a solubility (kinetic) of over 27.7 µg/mL.
The figure for `CCN(CC)CCN(C(=O)c1cc2ccccc2cc1OC)c1nc2ccc(OC)cc2s1.Cl` is 3.7 µg/mL; for `CCN(CC)c1ccc(CNc2nc3ccccc3n2CC)cc1` it is 10.9 µg/mL (≈ 33.8 µM); for `O=C(COc1ccccc1Cl)N1CCc2ccccc2C1` it is 38.7 µg/mL (≈ 128 µM).
The figure for `COc1cccc(C(=O)Nc2ccncc2)c1OC` is over 38.7 µg/mL; for `Cc1cc(NC(=O)CN(C)CC(=O)Nc2ccc(Cl)cc2)no1` it is over 50.5 µg/mL; for `COc1ccc(Cl)cc1C(=O)Nc1nc2ccccc2[nH]1` it is 1.2 µg/mL (≈ 3.98 µM).
To `Nc1ccc2nc3c(c(Cl)c2c1)CCCC3` belongs 25.1 µg/mL (≈ 108 µM).
`COc1ccccc1NC(=S)NC(=O)CCc1ccccc1` came in with a kinetic solubility of 0.7 µg/mL (≈ 2.23 µM).
To `NC(=O)c1ccccc1OCc1cccc2ccccc12` belongs 2.9 µg/mL (≈ 10.5 µM); to `Cc1ccccc1N=C(NO)c1cccnc1`, over 34.1 µg/mL.
The figure for `COCCNC(=O)Nc1ccc(F)cc1` is over 31.8 µg/mL; for `CSc1ccccc1NC(=O)CN(C)CC(=O)c1[nH]c(C)c(C(C)=O)c1C` it is 6.7 µg/mL (≈ 17.3 µM).
To `Cc1ccccc1OC(C)C(=O)NCc1cccnc1` (centres undefined) belongs 38.1 µg/mL (≈ 141 µM); to `COc1ccc(OCCOCCN2CCN(C)CC2)cc1.O=C(O)C(=O)O`, 54.2 µg/mL.
In turn, `O=[N+]([O-])c1ccc(-c2cn3c(n2)CCC3)cc1` gave a solubility (kinetic) of 25.5 µg/mL (≈ 111 µM).
The compound `Cc1cccc(-c2onc3ccc(C(=O)/C=C/N(C)C)cc23)c1` gave a kinetic solubility of 3.3 µg/mL (≈ 10.8 µM).
To `O=C(CSCc1ccc(F)cc1)NCc1ccc(F)cc1` belongs 44 µg/mL (≈ 143 µM).
`CC(=O)/C=C\c1ccc(OC(=O)c2cccnc2)cc1` gave a solubility (kinetic) of 39.6 µg/mL (≈ 148 µM).
With `COc1cccc(NC(=O)CN(C)CC(=O)NC(C)c2ccccc2)c1` (centres undefined), the kinetic solubility was found to be 41.4 µg/mL (≈ 116 µM).
The compound `CN(C(=O)c1ccccc1-c1ccccc1C(=O)O)c1ccccc1` came in with a kinetic solubility of 44.5 µg/mL (≈ 134 µM).
The figure for `CN1C(=O)N(C)C(=O)C2(Cc3cc([N+](=O)[O-])ccc3N(C)C2)C1=O` is 5.3 µg/mL (≈ 15.9 µM).
The figure for `N#C/C(=C/Nc1ccccc1F)S(=O)(=O)c1ccc(Cl)cc1` is 2.1 µg/mL (≈ 6.24 µM); for `CC1C2NC(=O)N(Cc3ccccc3)C1(C)Oc1ccccc12` (centres undefined) it is 20.9 µg/mL (≈ 67.8 µM).
`O=C(NCCN1CCOCC1)c1c(Cl)cccc1Cl` gave a kinetic solubility of 44.9 µg/mL (≈ 148 µM).
To `COc1cccc(NC(=O)Cn2cc(C=O)c3ccccc32)c1` belongs 0.5 µg/mL (≈ 1.62 µM); to `COc1ccc(C(=O)NCc2ccc3[nH]c(C)cc3c2)cc1OC`, 23.5 µg/mL (≈ 72.4 µM).
As for `CC(=O)Nc1ccc(/C=N/N2C(C)CCCC2C)cc1` (centres undefined), the solubility (kinetic) was over 41 µg/mL.
`CCCC/C(O)=C1\C(=O)CC(C)(C)CC1=Nc1ccc(N)cc1` yielded a kinetic solubility of over 47.2 µg/mL.
The figure for `CCN(Cc1ccncc1)Cc1ccc(Br)cc1.O=C(O)C(=O)O` is 30.6 µg/mL; for `C=CCNC(=O)C1CC1(c1cccc(C)c1)c1cccc(C)c1` (centres undefined) it is 1.7 µg/mL (≈ 5.57 µM); for `Cl.OCCNc1nc(N2CCCCC2)nc2ccccc12` it is over 46.3 µg/mL.
The figure for `COc1ccc(CNCc2ccncc2)cc1OC.Cl` is over 44.2 µg/mL.
The figure for `CSc1nc(N(C)C)c2ccccc2n1` is 31.8 µg/mL (≈ 145 µM); for `Cc1ccccc1OCC(=O)OCC(=O)NCC1CCCCC1` it is 7.6 µg/mL (≈ 23.8 µM).
With `O=C(Cn1c(NCCO)nc2ccccc21)NCC1CCCO1` (centres undefined), the kinetic solubility was over 47.8 µg/mL.
To `C/C(=C\c1ccc(F)cc1)C(=O)c1c(C)cc(C)[nH]c1=O` belongs 35.6 µg/mL (≈ 125 µM).
The figure for `O=C(CN1CCOCC1)NN=C(c1ccccc1)c1ccccc1` is over 48.5 µg/mL.
To `CC(=O)Nc1ccc(SCC(=O)Nc2sccc2C#N)cc1` belongs 26.5 µg/mL (≈ 80 µM); to `CC1CN(c2nc(Nc3ccccc3F)nc(N)c2[N+](=O)[O-])CC(C)O1` (centres undefined), over 54.4 µg/mL.
In the case of `O=C(Nc1cccc([N+](=O)[O-])c1)C1CC(=O)N(C2CCCCC2)C1` (centres undefined), the solubility (kinetic) was 48.5 µg/mL (≈ 146 µM).
The figure for `COc1ccc(CC(C)NCCC(c2ccccc2)c2ccccc2)cc1` (centres undefined) is 47.1 µg/mL (≈ 131 µM).
The figure for `CC(C)[C@H](NC(=O)c1ccccc1Cl)C(=O)OCC(=O)NCc1ccc2c(c1)OCO2` is over 67 µg/mL.
The figure for `CC1(C)SC(=S)N(c2ccccc2)C1/[N+]([O-])=C/c1cccc([N+](=O)[O-])c1` (centres undefined) is 6.2 µg/mL (≈ 16 µM); for `CCOc1ccccc1/C=C/c1nc2ccccc2[nH]c1=O` it is 1.6 µg/mL (≈ 5.47 µM); for `CC1(C)c2cc(Cl)ccc2-n2c1cc(O)c(-c1ccccc1)c2=O` it is 47.8 µg/mL (≈ 142 µM).
For `Cc1cc2cc(CNC(=O)COc3ccccc3)ccc2n1C`, the kinetic solubility was found to be 5.2 µg/mL (≈ 16.9 µM).
To `COc1ccccc1C(=O)C1CCCN(C(=O)Nc2ccccc2F)C1` (centres undefined) belongs over 53.5 µg/mL; to `Cc1ccccc1NS(=O)(=O)c1csc(C(N)=O)c1`, over 44.5 µg/mL.
The figure for `O=C(Nc1nc2ccc(F)cc2s1)Oc1ccccc1` is 1.7 µg/mL (≈ 5.9 µM).
To `CC(C)(C)OC(=O)N1CCC[C@@H]1CO` belongs over 30.2 µg/mL; to `COc1ccccc1CNc1ccc(N2CCCCC2)cc1`, 30 µg/mL (≈ 101 µM).
Turning to `CN1CCN(NC(=O)CC(C)(C)C)CC1`, the kinetic solubility was over 32 µg/mL.
The figure for `O=C(CNC(=O)c1ccccc1Cl)c1ccccc1` is 37.6 µg/mL (≈ 137 µM); for `Cc1ccc(C)c(-c2cc(C(=O)NC3CC3)c3ccccc3n2)c1` it is 39.6 µg/mL (≈ 125 µM); for `Cc1ccc(NC(=O)CO/N=C/c2ccccc2C)c(C)c1` it is 8.7 µg/mL (≈ 29.4 µM).
The figure for `COc1ccc(CNC2c3ccccc3-c3ccccc32)cc1OC` is 31.4 µg/mL (≈ 94.7 µM); for `COC(=O)Cc1c(C)nc(SCc2ccccc2)[nH]c1=O` it is 16.4 µg/mL (≈ 53.9 µM); for `O=C(CCSCc1ccc(Cl)cc1)NCc1ccco1` it is 39.5 µg/mL (≈ 127 µM).
The compound `CC(=O)Nc1ccc(S(=O)(=O)Nc2ccc3c(c2)OCO3)cc1` yielded a kinetic solubility of over 50.2 µg/mL.
To `CC1CN(C(=O)c2ccc([N+](=O)[O-])s2)CC(C)O1` (centres undefined) belongs over 40.5 µg/mL.
The figure for `O=C(COC(=O)c1c[nH]c2ccccc12)Nc1ccc(F)cc1` is 3.1 µg/mL (≈ 9.93 µM); for `O=C(Nc1ccc(Cl)c(S(=O)(=O)N2CCOCC2)c1)c1ccncc1` it is over 57.3 µg/mL.
The figure for `CCOc1ccc(C)cc1S(=O)(=O)NC1CCCCCC1` is 2.2 µg/mL (≈ 7.06 µM); for `N#Cc1ccccc1NC(=O)c1ccc2c(c1)OCO2` it is 10.8 µg/mL (≈ 40.6 µM).
As for `COC(=O)c1ccccc1NC(=O)c1onc(C)c1Cl`, the kinetic solubility is under 0.3 µg/mL.
`COc1cccc(NC(=O)C(=O)NCCc2ccc(F)cc2)c1` yielded a kinetic solubility of under 0.3 µg/mL.
The figure for `COc1cccc(CN2CCN(C3CCOCC3)CC2CCO)c1` (centres undefined) is 46.3 µg/mL (≈ 138 µM); for `COC(=O)c1nn(-c2ccc(OC)cc2)ccc1=O` it is over 39 µg/mL; for `CCC/C(O)=C1\C(=O)CC(C)(C)CC1=Nc1ccc(OC)cc1` it is 41.6 µg/mL (≈ 132 µM).
`Cc1cccc(Nc2nnc(SC3CCOC3=O)s2)c1C` (centres undefined) had a solubility (kinetic) of over 48.2 µg/mL.
The figure for `O=C(NCCN1CCOCC1)c1ccc(Cl)c(S(=O)(=O)NCc2ccccc2)c1` is 63.2 µg/mL (≈ 144 µM); for `Cc1ccc(OCCC(=O)OC(C)C(=O)NC2CC2)cc1` (centres undefined) it is over 43.7 µg/mL; for `O=C(COc1ccc2ccccc2c1Br)N1CCCC1` it is 45.4 µg/mL (≈ 136 µM).
`Cc1ccsc1C(=O)OCC(=O)NC1CCCC(C)C1C` (centres undefined): the kinetic solubility was 11.3 µg/mL (≈ 36.5 µM).
`O=[N+]([O-])c1ccc(/C=C/c2ccc3cccc(O)c3n2)cc1` yielded a solubility (kinetic) of under 0.3 µg/mL.
With `O=C(O)CCSC(=S)N1CCOCC1`, the solubility (kinetic) turned out to be 29.3 µg/mL (≈ 125 µM).
Regarding `COc1ccccc1/C=C/C(=O)OC(C)CN1CCCCC1.Cl` (centres undefined), the solubility (kinetic) was over 51 µg/mL.
The figure for `O=C(c1cc(-c2ccncc2)nc2ccccc12)N1CCN(c2ncccn2)CC1` is 55.4 µg/mL (≈ 140 µM); for `CC(=O)Nc1ccc(NC(=O)CC(C)n2ccnc2)cc1` (centres undefined) it is 40.8 µg/mL (≈ 142 µM); for `C=CCC1Cc2c(Br)cccc2C(CC=C)N1` (centres undefined) it is 13.3 µg/mL (≈ 45.5 µM).
For the compound `Cc1cc(SCC(=O)c2ccc(Cl)cc2)nc(=O)[nH]1`, the kinetic solubility was 16.5 µg/mL (≈ 56 µM).
`CCOC(=O)C1(CCOc2ccccc2)CCN(CC2CC2)CC1` yielded a solubility (kinetic) of 45.7 µg/mL (≈ 138 µM).
To `O=C(Cn1ccc([N+](=O)[O-])n1)Nc1nc2ccccc2s1` belongs over 45.5 µg/mL.
To `Cl.Clc1cc(I)cc(Cl)c1NC1=NCCN1` belongs over 58.9 µg/mL; to `CC(C)c1ccc(-c2c(NCCc3ccccc3)c(=O)c2=O)cc1`, 0.9 µg/mL (≈ 2.82 µM).
Turning to `N#Cc1cn(Cc2ccccc2)c(=O)[nH]c1=O`, the solubility (kinetic) is over 34.1 µg/mL.
With `Cl.O=C(CCN1CCOCC1)NCc1ccccc1`, the kinetic solubility was over 42.7 µg/mL.
The figure for `O=C(Nc1ccc(Br)cc1Cl)c1ccc(OCC2CCCO2)cc1` (centres undefined) is 2.8 µg/mL (≈ 6.82 µM); for `Cc1cn(CCC(=O)Nc2ccc(N3CCOCC3)cc2)c2ccccc12` it is 46.7 µg/mL (≈ 128 µM).
To `CCOC(=O)C1=C[C@]2(CC)CCCN3CCc4c(n1c1ccccc41)[C@@H]32` belongs 35.5 µg/mL (≈ 101 µM); to `Clc1nccc(NCc2ccccc2)n1`, over 33 µg/mL; to `[Cl-].c1ccc(Cn2c[n+](Cc3ccccc3)c3ccccc32)cc1`, 42.9 µg/mL.
To `Cc1cc(C)c(C(N)=O)c(SCC(=O)c2cc(C)n(-c3cc(C)on3)c2C)n1` belongs 1.9 µg/mL (≈ 4.77 µM); to `CCOC(=O)C1(Cc2cccc(F)c2)CCN(CC2CC2)CC1`, over 47.9 µg/mL; to `O=C(O)c1cc2n(n1)C(C(F)(F)F)CC(C1CC1)N2` (centres undefined), over 41.3 µg/mL.
The compound `CC1CC1C(=O)OCC(=O)NC(=O)c1ccccc1` (centres undefined) returned a kinetic solubility of over 39.2 µg/mL.
The figure for `CCOC(=O)/C(C(=Nc1ccccc1)Nc1ccccc1)=C(\C)O` is 29.5 µg/mL (≈ 90.9 µM).
For the compound `O=c1c2ccccc2nc2n1C(CSc1ccccc1)CS2` (centres undefined), the kinetic solubility was over 49 µg/mL.
The compound `CN(C)c1cccc(C(=O)NCc2ccccc2)c1` came in with a kinetic solubility of over 38.1 µg/mL.
The figure for `Cc1nc(NCc2ccccc2)sc1C(=O)Nc1ccccc1` is 0.8 µg/mL (≈ 2.47 µM).
In the case of `CN1CCN(c2ncnc3nc[nH]c23)CC1`, the kinetic solubility was 28.8 µg/mL (≈ 132 µM).
To `N#Cc1ccc(COC(=O)c2cccnc2Cl)cc1` belongs 26.9 µg/mL (≈ 98.6 µM).
